Measured values published in patent publication US20240024491A1, “MANNOSYLATED AMINE DEXTRAN DRUG DELIVERY VEHICLES WITH DEGRADABLE DISULFIDE/CARBONATE LINKERS TARGETING PAYLOADS TO CD206 EXPRESSING CELLS” (Navidea Biopharmaceuticals, Inc., priority 2022, published 2024).

Legend:
human macrophages = assay: Human macrophage cell culture assay, surface marker expression (MFI) by flow cytometry; format: cell-based; details: MAD-PAC3.5 or equal molar equivalent concentration of free paclitaxel; vs no drug control
Experimental: In this assay, human peripheral blood monocytes (hPBMCs) were incubated for five days in RPMI+10% FBS+1x Penicillin/Streptomycin/L-glutamine+5Ong/mlGM-CSF (complete medium) at a concentration of 500,000 monocytes per well in 48 well tissue culture plates. […] GM-CSF induces the macrophages to adopt an activated phenotype that is intermediate between the extremes of M1 or M2. […] Saline and Vehicle (MAD without a drug payload, 23.3 μg/ml) were added as alternative supplements to other cultures as negative controls. The macrophage cell cultures were incubated with the supplemented complete medium for 24 hours after which it was removed and replaced with fresh complete medium. The macrophage cultures were then incubated for an additional three days. The three-day post treatment incubation was performed to permit assessment of durable changes in macrophage phenotypes.
After the additional three-day incubation in fresh complete medium, the cells were harvested and evaluated by flow cytometry for viability (DAPI) or expression of macrophage surface markers. These markers are representative of markers that are frequently considered as indicative of either M1-like or M2-like phenotypes or are known immune checkpoint receptors. The evaluated cell surface markers included CD206, CD163, CD80, CD86, MHC1, MHC2, SIRPa, and PD-1 using antibodies specific for each marker. […] The outputs of the flow cytometry assays were mean fluorescent intensities (MFI). Macrophages differentiated from monocytes collected from three separate donors were evaluated for all treatments. For each donor's macrophages, all experiments were run in triplicate.

CT26 cells = assay: CT26/Balb-c syngeneic mouse tumor model; format: in vivo; details: intravenous injections on treatment days 1, 4, 7 and 11; MAD-PAC3.5 127 μg/injection, free paclitaxel molar equivalent
Experimental: Mice were implanted with CT26 cells that were permitted to grow and become established until they had attained tumor volumes of 80-100 mm 3. Tumor bearing mice (n=10/treatment group) were administered test articles by intravenous injections on 4 days (treatment days, 1, 4, 7, and 11). […] Tumor volumes were measured and recorded at regular intervals.

CC(=O)O[C@H]1C(=O)[C@@]2(C)[C@H]([C@H](OC(=O)c3ccccc3)[C@]3(O)C[C@H](OC(=O)[C@H](O)[C@@H](NC(=O)c4ccccc4)c4ccccc4)C(C)=C1C3(C)C)[C@]1(OC(C)=O)CO[C@@H]1C[C@@H]2O [free paclitaxel, paclitaxel] was tested, and the “expression of CD80” value (human macrophages) was “increased the expression”, the “expression of CD86” value (human macrophages) was “increased the expression” and the “expression of CD163” value (human macrophages) was “modestly increased expression”. For the same compound, the “expression of CD206” value (human macrophages) was “modestly increased expression”, the “expression of MHC1” value (human macrophages) was “not significantly altered” and the “expression of MHC2” value (human macrophages) was “not significantly altered”. The “expression of PD1” value (human macrophages) was “not by free paclitaxel”, the “expression of SIRPa” value (human macrophages) was “not significantly altered” and the “mean tumor volume on treatment day 14 compared to saline” value (CT26 cells) was “modestly decreased mean tumor volumes”.
